This note sets out measurements from patent publication US4661516A, “Diaminocyclohexane platinum complexes” (Research Corporation, priority 1984, dated 1987).

Series [1] relates to Wild type L1210 leukemic cells. Put plainly: In vitro cytotoxicity, wild type L1210 leukemic cells (L1210/0). The class given is cell-based. The conditions noted are these: L1210, 72 hours incubation. The protocol: Four ml of cell suspension (10^5 cells/ml) are added to culture tubes and the appropriate concentration (0.01, 0.1, 1 or 10 μg/ml final concentration) of drug added to the culture tubes. After 72 hours of incubation, the cell concentration of control and experimental cultures are determined with the aid of a Coulter Counter® Model ZBf and the percent inhibition calculated. […]

The subject of the next series is L1210 cells. Put plainly: In vivo anti-tumor activity, L1210, single i.p. injection. Also on record: species or system BDF1 mice. The settings on record: single i.p. As for the experimental part:
About 24 hours after inoculation of the cells, the mice were injected intraperitoneally with varying dosages of complexes of the present invention. […] Long term survival signifies that animals were alive 60 days after inoculation with L1210 cells.

The next series relates to L1210/0 leukemia cells. The series can be described thus: In vivo anti-tumor activity, L1210 (L1210/0), multiple i.p. doses. The settings on record: for LTS: survivors/treated 50 days after treatment. Also on record: species or system BDF1 mice. The protocol: BDF1 mice were inoculated intraperitoneally with 10^6 L1210 cells. About 24 hours after inoculation of the cells, the mice were injected intraperitoneally with varying dosages of complexes of the present invention. Six mice were used for each dosage level in each experiment with an equal number of control mice inoculated with 10^6 L1210 cells and left untreated with a given complex. The results [%T/C=(survival time of treated animals/survival time of control animals)×100] are set forth below. Long term survival signifies that animals were alive 60 days after inoculation with L1210 cells.
The procedure of Example 16 was repeated except that the treated animals were injected with multiple doses of the complex as indicated below:
The anti-tumor activity of compound number 3 was evaluated against cells sensitive to (L1210/0) and resistant to (L1210/PDD) the standard platinum complex cis-diamminedichloroplatinum(II).
The following complexes were tested in vivo oncolytic activity following 3 i.p. injections (days 1, 5, 9) according to the protocol described in Examples 16 and 17.
BDF1 mice were innoculated intraperitoreally with 10^6 L1210 leukemia cells and treatment was begun on the next day (day 1). Two treatment schedules, i.e. single i.p. injection of the drug and i.p. injections on days 1, 5 and 9 according to the protocol described in Examples 16 and 17 were used.

In the case of `NC1CCCCC1N.O=C([O-])C1CC(O)CN1.O=C([O-])C1CC(O)CN1.[Pt+2]` (mixture of isomers) [Compound 17, cis-bis-L-hyroxyprolinato(DACH)Pt(II).1H2 O], the ID50 in series [1] came to 2.7 µg/mL. Besides, the “% T/C” value is 160% in the series with L1210 cells (25 mg/kg), 170% in the series with L1210 cells (50 mg/kg) and “Toxic” with L1210 cells (100 mg/kg).
`NC1CCCCC1N.O.O=C1CC(C(=O)[O-])C(C(=O)[O-])O1.[Pt+2]` (racemic) [Compound 12, DL-isocitratolactone(DACH)Pt(II).1H2 O]: the “% T/C” value is given as 219% in the series on L1210/0 leukemia cells (25 mg/kg, days 1,5,9); 165% in the series on L1210/0 leukemia cells (50 mg/kg, days 1,5,9); 133% with L1210 cells (25 mg/kg); 145% in the series with L1210 cells (50 mg/kg); “Toxic” in the series with L1210 cells (100 mg/kg). The ID50 in series [1] was 1.0 µg/mL.
For the molecule `NC1CCCCC1N.O.O=C([O-])C1CCCCN1.O=C([O-])C1CCCCN1.[Pt+2]` (racemic) [Compound 18, cis-bis-DL-pipecolinato(DACH)Pt(II).1H2 O], the ID50 in series [1] came out at 0.44 µg/mL. The “% T/C” value with L1210 cells (12.5 mg/kg) is reported as 145%; in the series on L1210 cells (25 mg/kg), 180%; in the series on L1210 cells (50 mg/kg), “Toxic”.
As for `NC1CCCCC1N.O=C([O-])[C@@H]1CCC[C@H]1C(=O)[O-].[Pt+2]` (racemic) [Compound 27, trans-DL-1,2-cyclopentanedicarboxylato(DACH)Pt(II)], the ID50 in series [1] was 0.4 µg/mL. For the same molecule, the “% T/C” value was 158% in the series on L1210 cells (12.5 mg/kg), 159% in the series with L1210 cells (25 mg/kg) and 183% in the series with L1210 cells (50 mg/kg).
Turning to `NC1CCCCC1N.O=C1OC(C(O)CO)C([O-])=C1O.O=C1OC(C(O)CO)C([O-])=C1O.[Pt+2]` (stereo not drawn) [Compound 6, cis-bis-ascorbato(cis-DACH)Pt(II).5H2 O], in series [1] (4320 min), the ID50 worked out at 4.0 µg/mL. The “% T/C” value in the series with L1210 cells (50 mg/kg) and with L1210 cells (100 mg/kg) was “Toxic” throughout.
Take `NC1CCCCC1N.O.O.O=C([O-])C1=CC(O)C(O)C(O)C1.O=C([O-])C1=CC(O)C(O)C(O)C1.[Pt+2]` (stereo not drawn) [Compound 10, cis-bis-shikimato(DACH)Pt(II).2H2 O]: the “% T/C” value in the series with L1210/0 leukemia cells (12.5 mg/kg, days 1,5,9) was 139%; in the series on L1210/0 leukemia cells (25 mg/kg, days 1,5,9) it was 149%; in the series with L1210/0 leukemia cells (50 mg/kg, days 1,5,9), 222%; with L1210 cells (50 mg/kg), 140%; with L1210 cells (100 mg/kg), 217%. The “Long Term Survivors” value is 1/6 in the series on L1210/0 leukemia cells (50 mg/kg, days 1,5,9) and 2/6 in the series with L1210 cells (100 mg/kg, alive 60 days after inoculation).
`NC1CCCCC1N.O.O.O=S(=O)([O-])CCO.O=S(=O)([O-])CCO.[Pt+2]` (stereo not drawn) [Compound 13, cis-bis-isethionato(DACH)Pt(II).2H2 O] came in with an ID50 in series [1] of 0.43 µg/mL. Also, the “% T/C” value with L1210 cells (5 mg/kg) was 153%; in the series on L1210 cells (10 mg/kg) it was 180%; with L1210 cells (20 mg/kg), 140%; in the series on L1210 cells (50 mg/kg), “Toxic”. For the same molecule, the “animals died of apparent drug toxicity” value in the series on L1210 cells (20 mg/kg) is 2/6. Also, the “Long Term Survivors” value with L1210 cells (20 mg/kg, alive 60 days after inoculation) was 1/6.
For `NC1CCCCC1N.O.O=C([O-])C1CCN1.O=C([O-])C1CCN1.[Pt+2]` [Compound 15, cis-bis-L-azetidinecarboxylato(DACH)Pt(II).1H2 O], the ID50 in series [1] came to 3.6 µg/mL. The “% T/C” value in the series with L1210 cells (12.5 mg/kg) is listed as 157%; in the series with L1210 cells (25 mg/kg), 148%; with L1210 cells (50 mg/kg), 161%; in the series on L1210 cells (100 mg/kg), “Toxic”.
Consider `NC1CCCCC1N.O.O=C([O-])C1(C(=O)[O-])CC1.[Pt+2]` [Compound 20, cyclopropane-1,1-dicarboxylato(DACH)Pt(II).H2 O], for which the ID50 in series [1] worked out at 0.41 µg/mL.
`NC1CCCCC1N.O.O=C([O-])C1CCCCC1.O=C([O-])C1CCCCC1.[Pt+2]` [Compound 22, Cis-bis-cyclohexanecarboxylato(DACH)Pt(II).1H2 O]: the ID50 in series [1] stood at 0.5 µg/mL. The “% T/C” value in the series on L1210 cells (50 mg/kg) came out at 140%; in the series on L1210 cells (100 mg/kg), 170%.
`NC1CCCCC1N.O.O=C([O-])CC1(CC(=O)[O-])CCCCC1.[Pt+2]` [Compound 23, 1,1-cyclohexanediacetato(DACH)Pt(II).1H2 O] gave an ID50 in series [1] of 0.6 µg/mL.
For the molecule `NC1CCCCC1N.O.O=C([O-])C1CCCC1.O=C([O-])C1CCCC1.[Pt+2]` (stereo not drawn) [Compound 25, Cis-bis-cyclopentanecarboxylato(DACH)Pt(II).1H2 O], the “% T/C” value was found to be 202% with L1210/0 leukemia cells (6.25 mg/kg i.p., days 1, 5, 9, 30 day observation period); 246% in the series with L1210/0 leukemia cells (12.5 mg/kg i.p., days 1, 5, 9, 30 day observation period); 253% in the series on L1210/0 leukemia cells (25 mg/kg i.p., days 1, 5, 9, 30 day observation period); 161% with L1210 cells (12.5 mg/kg); 178% in the series on L1210 cells (25 mg/kg); 163% in the series with L1210 cells (50 mg/kg). In series [1], the ID50 is 0.3 µg/mL.
As for `NC1CCCCC1N.O.O=C([O-])C1CC1.O=C([O-])C1CC1.[Pt+2]` (stereo not drawn) [Compound 29, Cis-bis-cyclopropanecarboxylato(DACH)Pt(II).1H2 O], the ID50 in series [1] is 0.3 µg/mL. Also, the “% T/C” value in the series with L1210 cells (12.5 mg/kg) is on record as 252%; with L1210 cells (25 mg/kg), 176%; in the series with L1210 cells (50 mg/kg), 199%. Moreover, in the series on L1210 cells (12.5 mg/kg), the LTS is given as 1/6. Further, the “Long Term Survivors (LTS)” value with L1210 cells (50 mg/kg, alive 60 days after inoculation) is given as 1/6.
In series [1], `NC1CCCCC1N.O.O=C([O-])C1CCC1.O=C([O-])C1CCC1.[Pt+2]` (stereo not drawn) [Compound 30, Cis-bis-cyclobutanecarboxylato(DACH)Pt.1H2 O] had an ID50 of 0.4 µg/mL. Moreover, the “% T/C” value with L1210 cells (12.5 mg/kg) came out at 149%; in the series on L1210 cells (25 mg/kg), 154%; with L1210 cells (50 mg/kg), 145%.
With `CCS(=O)(=O)[O-].CCS(=O)(=O)[O-].NC1CCCCC1N.O.[Pt+2]` (stereo not drawn) [Compound 31, Cis-bis-ethanesulfonato(DACH)Pt(II).H2 O], the “% T/C” value in the series with L1210/0 leukemia cells (50 mg/kg i.p., days 1, 5, 9, 30 day observation period) came to 198%; with L1210/0 leukemia cells (100 mg/kg i.p., days 1, 5, 9, 30 day observation period) it was 295%; in the series on L1210 cells (12.5 mg/kg) it was 109%; in the series with L1210 cells (25 mg/kg), 134%; with L1210 cells (50 mg/kg) it was 153%. The LTS in the series with L1210/0 leukemia cells (50 mg/kg, days 1, 5, 9) was 1/6; with L1210/0 leukemia cells (100 mg/kg, days 1, 5, 9), 2/6. The ID50 in series [1] worked out at 3.1 µg/mL.
Consider `NC1CCCCC1N.NCC(=O)[O-].NCC(=O)[O-].O.[Pt+2]` (stereo not drawn) [Compound 32, Cis-bis-glycinato(DACH)Pt(II).1H2 O], for which the ID50 in series [1] came out at 2.5 µg/mL. For the same molecule, the “% T/C” value came out at 128% in the series on L1210 cells (12.5 mg/kg), 131% in the series with L1210 cells (25 mg/kg) and 158% with L1210 cells (50 mg/kg).
`NC1CCCCC1N.O=S(=O)([O-])CCCl.O=S(=O)([O-])CCCl.[Pt+2]` (stereo not drawn) [Compound 33, Cis-bis-chloroethanesulfonato(DACH)Pt(II).1H 2 O] returned an ID50 in series [1] of 0.3 µg/mL. Besides, the “% T/C” value was 188% in the series on L1210 cells (12.5 mg/kg), 144% with L1210 cells (25 mg/kg) and “Toxic” with L1210 cells (50 mg/kg).
Take `NC1CCCCC1N.O=C([O-])CN(CCO)CCO.O=C([O-])CN(CCO)CCO.[Pt+2]` [Compound 34, Cis-bis-bicinato(DACH)Pt(II)]: in series [1], the ID50 stood at 1.2 µg/mL. Moreover, the “% T/C” value in the series on L1210 cells (12.5 mg/kg) is 165%; in the series on L1210 cells (25 mg/kg), 151%; in the series on L1210 cells (50 mg/kg) it was 160%.
On to `NC1CCCCC1N.O.O.O=C([O-])CNCC(=O)[O-].[Pt+2]` [Compound 35, Iminodiacetato(trans-R,R--DACH)Pt(II).2H2 O], for which the “Long Term Survivors” value with L1210/0 leukemia cells (Tables X and XI, days 1, 5 and 9, at maximal effective dose, alive 60 days after tumor inoculation) is recorded as 2/6. The “Maximal Effective Dose” value with L1210/0 leukemia cells (Tables X and XI, i.p. on days 1, 5 and 9) is recorded as 25 mg/kg. Besides, the “% T/C” value with L1210/0 leukemia cells (Tables X and XI, i.p. on days 1, 5 and 9, at maximal effective dose) was 437%. Besides, the ID50 in series [1] was 3.0 µg/mL.
In turn, `NC1CCCCC1N.O.O.O=C([O-])C1CCCN1.O=C([O-])C1CCCN1.[Pt+2]` [Compound 36, Cis-bis-L-prolinato(trans-R,R--DACH)Pt(II).2H2 O] yielded an ID50 in series [1] of 0.8 µg/mL. In addition, the “% T/C” value in the series on L1210 cells (12.5 mg/kg) was 179%; in the series with L1210 cells (25 mg/kg), 212%; in the series on L1210 cells (50 mg/kg), 149%. In addition, in the series on L1210 cells (25 mg/kg), the “Long Term Survivors (LTS)” value was 1/6.
In series [1], `NC1CCCCC1N.O=C([O-])[C@@H]1C[C@H]1C(=O)[O-].[Pt+2]` [Compound 40, trans-1,2-cyclopropanedicarboxylato(DACH)Pt(II)] registered an ID50 of 0.4 µg/mL.
Consider `NC1CCCCC1N.O=C([O-])[C@@H]1CC[C@H]1C(=O)[O-].[Pt+2]` [Compound 41, trans-1,2-cyclobutanedicarboxylato(DACH)Pt(II)], for which, in series [1], the ID50 was found to be 0.5 µg/mL.
Consider “Cis-bis-cyclohexenecarboxylato(DACH)Pt(II).1H2 O [Compound 24]”, for which, in series [1], the ID50 was determined as 1.0 µg/mL. In addition, the “% T/C” value with L1210 cells (25 mg/kg) worked out at 132%; with L1210 cells (50 mg/kg) it was 165%; with L1210 cells (100 mg/kg), 105%.
